Data: EPA's CvTdb concentration-time database

Key:
rat [1] = test: concentration in blood after dosing; conditions: dosed: m-xylene, 5000 ppm, dermal, duration: 4 hr, male, F344
rat [2] = test: concentration in blood after dosing; conditions: dosed: m-xylene, 5000 ppm, dermal, duration: 4 hr, male, F344; remark: listed apart in the source
rat [3] = test: concentration in blood after dosing; conditions: dosed: m-xylene, 5000 ppm, dermal, duration: 4 hr, male, F344; remark: listed apart in the source
rat [4] = test: concentration in blood after dosing; conditions: dosed: m-xylene, 5000 ppm, dermal, duration: 4 hr, male, F344; remark: listed apart in the source
rat [5] = test: concentration in blood after dosing; conditions: dosed: m-xylene, 5000 ppm, dermal, duration: 4 hr, male, F344; remark: listed apart in the source
rat [6] = test: concentration in blood after dosing; conditions: dosed: m-xylene, 5000 ppm, dermal, duration: 4 hr, male, F344; remark: listed apart in the source
rat [7] = test: concentration in blood after dosing; negative times count back from the end of exposure; conditions: dosed: pyrene, inhalation, duration: 95 min, male, Wistar, radiolabel
Rat [8] = test: concentration in adipose after dosing; conditions: 144 h; dosed: Tamoxifen; 300 ug/mL; oral; Female; F344
Rat [9] = test: concentration in adipose after dosing; conditions: 144 h; dosed: Tamoxifen citrate; 300 ug/mL; oral; Female; F344
Rat [10] = test: concentration in adipose after dosing; conditions: 72 h; dosed: Tamoxifen citrate; 100 ug/mL; oral; Female; F344
Rat [11] = test: concentration in adipose after dosing; conditions: 144 h; dosed: Tamoxifen; 300 ug/mL; oral; Female; F344; remark: listed apart in the source
Rat [12] = test: concentration in adipose after dosing; conditions: oral, Female, F344
Rat [13] = test: concentration in adipose after dosing; conditions: 144 h; dosed: Tamoxifen; 300 ug/mL; oral; Female; F344; remark: listed apart in the source
Rat [14] = test: concentration in adipose after dosing; conditions: 144 h; dosed: Tamoxifen citrate; 300 ug/mL; oral; Female; F344; remark: listed apart in the source
Rat [15] = test: concentration in adipose after dosing; conditions: 144 h; dosed: Tamoxifen citrate; 100 ug/mL; oral; Female; F344
Rat [16] = test: concentration in plasma after dosing; conditions: 72 h, 300 ug/mL, oral, Female, F344
Rat [17] = test: concentration in adipose after dosing; conditions: 144 h; dosed: Tamoxifen citrate; 100 ug/mL; oral; Female; F344; remark: listed apart in the source
Rat [18] = test: concentration in adipose after dosing; conditions: 144 h; dosed: Tamoxifen citrate; 300 ug/mL; oral; Female; F344; remark: listed apart in the source

Cc1cccc(C)c1 [m-xylene]
concentration in blood [ng/mL]
Conditions	rat [1]	rat [2]	rat [3]	rat [4]	rat [5]	rat [6]
0.5 h	2860	154	154	6020	5380	3960
1 h	2950	5860	4110	7020	9470	3790
2 h	8160	3840	4350	3450	12100	25600
3 h	8020	3760	8850	9500	15900	5950
4 h	9030	5030	10500	11400	16700	9940

c1cc2ccc3cccc4ccc(c1)c2c34 [total 14C-pyrene]
rat [7]
Conditions	concentration in blood [ng/mL]
-28 s, 800 mg/m^3, during exposure	40700
-1.353 h, 200 mg/m^3, during exposure	659
-1.349 h, 500 mg/m^3, during exposure	2480
-1.122 h, 500 mg/m^3, during exposure	6670
-1.119 h, 800 mg/m^3, during exposure	8210
-1.09 h, 200 mg/m^3, during exposure	1400
-0.7764 h, 800 mg/m^3, during exposure	19900
-0.7622 h, 200 mg/m^3, during exposure	2040
-0.7591 h, 500 mg/m^3, during exposure	10200
-0.4362 h, 800 mg/m^3, during exposure	29200
-0.434 h, 200 mg/m^3, during exposure	2250
-0.4242 h, 500 mg/m^3, during exposure	12700
0.2501 h, 200 mg/m^3	1940
0.253 h, 500 mg/m^3	16900
0.263 h, 800 mg/m^3	41000
0.5176 h, 500 mg/m^3	14700
0.5339 h, 800 mg/m^3	41000
0.8638 h, 800 mg/m^3	43500
0.87 h, 500 mg/m^3	12400
0.875 h, 200 mg/m^3	1190
1.216 h, 500 mg/m^3	9070
1.222 h, 800 mg/m^3	42700
1.227 h, 200 mg/m^3	1020
1.722 h, 500 mg/m^3	6760
1.724 h, 800 mg/m^3	34600
1.733 h, 200 mg/m^3	990
2.225 h, 500 mg/m^3	5300
2.235 h, 800 mg/m^3	30300
2.245 h, 200 mg/m^3	837
2.901 h, 200 mg/m^3	773
2.91 h, 800 mg/m^3	24100
2.926 h, 500 mg/m^3	4130
3.568 h, 800 mg/m^3	21000
3.582 h, 200 mg/m^3	714
3.588 h, 500 mg/m^3	3380
4.567 h, 800 mg/m^3	15500
4.569 h, 200 mg/m^3	695
4.577 h, 500 mg/m^3	3050
6.023 h, 800 mg/m^3	11100
6.027 h, 500 mg/m^3	2510
7.481 h, 800 mg/m^3	9810
32 min, 200 mg/m^3	1460
34 s, 500 mg/m^3	15900
79 s, 200 mg/m^3	2240

CC/C(=C(/c1ccc(O)cc1)c1ccc(OCCN(C)C)cc1)c1ccccc1 [trans-4-Hydroxytamoxifen]
Conditions	concentration in adipose [ng/g]
Rat [8]	5.1
Rat [9]	10.3
Rat [10]	5.3
Rat [11]	10.3
Rat [13]	9.08
Rat [14]	5.1
Rat [15]	5.04
Rat [17]	6.12
Rat [18]	9.08

concentration in adipose [ng/g], Rat [12]
Conditions	72 h	144 h
dosed: Tamoxifen citrate, 100 ug/mL	8.8	4.35
dosed: Tamoxifen citrate, 300 ug/mL	–	2.96
dosed: Tamoxifen, 300 ug/mL	–	2.96

Rat [16]
Conditions	concentration in plasma [ng/mL]
dosed: Tamoxifen	1.87
dosed: Tamoxifen citrate	1.87
